Source: PubChem BioAssay (NCI)
Values joined by “and” are separate entries in the source; they are usually repeats but may differ in a detail not shown here. Equal values may be shown once.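 Following 48 hours of exposure in 96-well plates, responses at five concentrations were used to interpolate endpoints linearly. At the GI50, growth is halved. TGI denotes the concentration required for complete inhibition of growth.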

What was measured:
Assay in all cases: NCI-60 cell line screen, 48 h
[1] = system: HOP-62 NSCLC
[2] = system: EKVX NSCLC
[3] = system: HOP-92 NSCLC
[4] = system: LOX IMVI melanoma
[5] = system: HCC-2998 colon
[6] = system: COLO 205 colon
[7] = system: KM12 colon

COc1cccc(C2CC(c3cc(OC)c(OC)c(OC)c3)=NN2)c1 (configuration not stated)
GI50 [1]: 8.99 µM
TGI [1]: 71.4 µM
GI50 [2]: 14.5 µM
TGI [2]: 46.1 µM
GI50 [3]: 11.9 µM
TGI [3]: 39.2 µM
GI50 [4]: 9.49 µM
TGI [4]: 21.8 µM
GI50 [5]: 4.78 µM
TGI [5]: 18.3 µM
GI50 [6]: 18.7 µM
TGI [6]: 48.8 µM
GI50 [7]: 5.02 µM
TGI [7]: 20.4 µM

O=C(O)CSCc1cccc2ccccc12
TGI [1]: > 100 µM
TGI [2]: > 100 µM
TGI [3]: > 100 µM
TGI [4]: > 100 µM
TGI [6]: > 100 µM
TGI [7]: > 100 µM

Cc1ccc(C(=O)N(CCCN)[C@@H](c2nc3cc(Cl)ccc3c(=O)n2Cc2ccccc2)C(C)C)cc1
GI50 [1]: < 0.01 µM and 0.01 µM
TGI [1]: 2.07 µM and 2.09 µM
GI50 [2]: < 0.01 µM
TGI [2]: 2.22 µM and 1.64 µM
GI50 [3]: 1 µM
TGI [3]: 2 µM and 2.33 µM
GI50 [4]: < 0.01 µM
TGI [4]: 1.81 µM and 1.52 µM
GI50 [5]: < 0.01 µM
TGI [5]: 1.23 µM and 0.912 µM
GI50 [6]: < 0.01 µM
TGI [6]: 1.1 µM
GI50 [7]: < 0.01 µM
TGI [7]: 1.29 µM and 1.44 µM

O=[As](O)(O)c1ccc(NCc2ccccc2)cc1
TGI [1]: > 100 µM
TGI [2]: > 100 µM
TGI [3]: > 100 µM
TGI [4]: > 100 µM
TGI [6]: > 100 µM
TGI [7]: > 100 µM

CCCN(CCC)CCCNCc1cc(I)cc(C)c1O
GI50 [1]: 13.4 µM
TGI [1]: 26.2 µM
GI50 [2]: 15.8 µM
TGI [2]: 33.7 µM
GI50 [3]: 5.04 µM
TGI [3]: 18.6 µM
GI50 [4]: 14.6 µM
TGI [4]: 27.7 µM
GI50 [5]: 20.9 µM
TGI [5]: 36.1 µM
GI50 [6]: 13.8 µM
TGI [6]: 29 µM
GI50 [7]: 15 µM
TGI [7]: 30 µM

CC(C)(C)OC(=O)NCCNC1=CC(=O)c2nc3ccccc3c3ccnc1c23
GI50 [1]: 24.4 µM
TGI [1]: > 100 µM
GI50 [2]: 41.4 µM
TGI [2]: > 100 µM
GI50 [3]: 17.9 µM
TGI [3]: 42.5 µM
GI50 [6]: 12.7 µM
TGI [6]: 34.7 µM
GI50 [7]: 22.7 µM
TGI [7]: 66.6 µM

C=C(Cn1c(=O)c2ccccc2c2ccccc21)c1ccc(C(=O)Nc2ccccc2N)cc1
GI50 [1]: 40.9 µM
TGI [1]: > 100 µM
GI50 [2]: > 59.8 µM
TGI [2]: > 100 µM
GI50 [3]: 0.689 µM
TGI [3]: 26.1 µM
GI50 [4]: 7.77 µM
TGI [4]: > 100 µM
GI50 [5]: 31.1 µM
TGI [5]: > 100 µM
GI50 [6]: 45.1 µM
TGI [6]: > 100 µM
GI50 [7]: 25.6 µM
TGI [7]: > 100 µM

O=C(/C=C/c1ccc(B(O)O)cc1)/C=C/c1ccc(B(O)O)cc1
GI50 [1]: 10.3 µM
TGI [1]: 22 µM
GI50 [3]: 7.94 µM
TGI [3]: 22.9 µM
GI50 [4]: 1.59 µM
TGI [4]: 3.07 µM
GI50 [5]: 1.95 µM
TGI [5]: 3.61 µM
GI50 [6]: 2.21 µM
TGI [6]: 4.83 µM
GI50 [7]: 1.66 µM
TGI [7]: 3.23 µM

CC(=O)N1CCN(C2=Nc3ccccc3CO2)C1=S
GI50 [1]: > 100 µM
TGI [1]: > 100 µM
GI50 [2]: 45.1 µM
TGI [2]: > 100 µM
GI50 [3]: 34 µM
TGI [3]: > 100 µM
GI50 [4]: 52.4 µM
TGI [4]: > 100 µM
GI50 [5]: 26.9 µM
TGI [5]: 97.2 µM
GI50 [6]: > 100 µM
TGI [6]: > 100 µM
GI50 [7]: > 100 µM
TGI [7]: > 100 µM

O=S(=O)(Nc1ncccn1)c1ccc(N=Nc2ccc(O)c3ncccc23)cc1
GI50 [1]: 9.15 µM
TGI [1]: 76.1 µM
GI50 [4]: 8.7 µM
TGI [4]: 33.7 µM
GI50 [5]: 12.2 µM
TGI [5]: 29 µM
GI50 [6]: 26.2 µM
TGI [6]: > 100 µM
GI50 [7]: 5.87 µM
TGI [7]: 29.8 µM

Cc1nc2ccc(CN(C)c3ccc(C(=O)N[C@@H](CCC(=O)O)C(=O)O)s3)cc2c(=O)[nH]1
TGI [1]: > 100 µM
TGI [2]: > 100 µM
TGI [3]: > 100 µM
TGI [4]: > 100 µM
GI50 [5]: < 0.01 µM
TGI [5]: > 100 µM
TGI [6]: > 100 µM
TGI [7]: > 100 µM

Cc1nc2sccn2c1/C=C1/C(=O)Nc2ccccc21
GI50 [1]: 5.13 µM
TGI [1]: > 100 µM
GI50 [2]: 27.6 µM
TGI [2]: > 100 µM
GI50 [3]: 17.9 µM
TGI [3]: > 100 µM
GI50 [4]: 8.42 µM
TGI [4]: > 100 µM
GI50 [5]: 1.13 µM
TGI [5]: 27.2 µM
GI50 [6]: 3.11 µM
TGI [6]: > 45.9 µM
GI50 [7]: 0.349 µM
TGI [7]: > 100 µM

C=C1C(=O)O[C@H]2[C@H]1CC/C(CNC(=O)/C=C/c1ccc(Br)cc1)=C\CC[C@@]1(C)O[C@@H]21
GI50 [1]: 2.2 µM
TGI [1]: 6.87 µM
GI50 [2]: 1.46 µM
TGI [2]: 2.91 µM
GI50 [3]: 0.659 µM
TGI [3]: 2.26 µM
GI50 [4]: 0.594 µM
TGI [4]: 1.86 µM
GI50 [5]: 1.56 µM
TGI [5]: 3 µM
GI50 [6]: 0.987 µM
TGI [6]: 2.75 µM
GI50 [7]: 1.87 µM
TGI [7]: 3.8 µM

COc1cc(/C(Cl)=C/C=C/C(=O)c2c(C)[n+]([O-])c3ccc(Cl)cc3[n+]2[O-])cc(OC)c1OC
GI50 [1]: 7.68 µM
TGI [1]: 24.4 µM
GI50 [2]: 14.2 µM
TGI [2]: > 50 µM
GI50 [3]: 4.7 µM
TGI [3]: 28.1 µM
GI50 [4]: 1.77 µM
TGI [4]: 7.54 µM
GI50 [5]: 16.7 µM
TGI [5]: > 50 µM
GI50 [6]: 10 µM
TGI [6]: 28.2 µM
GI50 [7]: 5.07 µM
TGI [7]: > 50 µM

O=C(Nc1ccc(Cl)cc1Cl)c1ccc(NC2=C(Cl)C(=O)N(Cc3ccccc3)C2=O)cc1
GI50 [1]: 20.2 µM
TGI [1]: 40.5 µM
GI50 [2]: 21.7 µM
TGI [2]: 46.1 µM
GI50 [3]: 13.1 µM
TGI [3]: 26.7 µM
GI50 [4]: 6.6 µM
TGI [4]: 19.1 µM
GI50 [6]: 16.3 µM
TGI [6]: 38.8 µM
GI50 [7]: 21.1 µM
TGI [7]: 64.4 µM

CC(=O)C1=C(O)C=C2Oc3c(C(=O)/C=C/c4cc(C(F)(F)F)cc(C(F)(F)F)c4)c(O)c(C)c(O)c3[C@]2(C)C1=O
GI50 [1]: 1.18 µM
TGI [1]: 5.17 µM
GI50 [2]: 0.462 µM
TGI [2]: 6.44 µM
GI50 [4]: 0.511 µM
TGI [4]: 1.89 µM
GI50 [5]: 1.53 µM
TGI [5]: 3.63 µM
GI50 [6]: 0.527 µM
TGI [6]: 1.75 µM
GI50 [7]: 0.658 µM
TGI [7]: 3.23 µM

C(=Nc1ccccc1)C1CCCC[N-]1.C(=Nc1ccccc1)C1CCCC[N-]1.[Cu+2].[O-][Cl+3]([O-])([O-])O (configuration not stated)
GI50 [1]: 15.5 µM
TGI [1]: 54.6 µM
GI50 [2]: 19 µM
TGI [2]: 58.1 µM
GI50 [3]: 23 µM
TGI [3]: > 73.9 µM
GI50 [4]: 0.0132 µM
TGI [4]: 11.8 µM
GI50 [5]: 2.4 µM
TGI [5]: 24.4 µM
GI50 [6]: 12.8 µM
TGI [6]: > 52.2 µM
GI50 [7]: 1.07 µM
TGI [7]: 22.4 µM
